Literature values, collected in patent publication US20200308123A1, “Novel formulation of metaxalone” (ICEUTICA PTY LTD., priority 2009, published 2020).
Where two headings read alike, the source gives them in different places.

Columns and labels:
[1] = test system: Hepatic Cytochrome P450 enzymes
[2] = test system: major CYP enzymes such as CYP1A2, CYP2B6, and CYP3A4; details: in vitro
[3] = test system: major CYP enzymes such as CYP1A2, CYP2A6, CYP2B6, CYP2C8, CYP2C9, CYP2C19, CYP2D6, CYP2E1, and CYP3A4

Structure (SMILES): Cc1cc(C)cc(OCC2CNC(=O)O2)c1 (stereo not drawn) [Metaxalone]
- CYP enzymes that appear to metabolize metaxalone [1]: CYP1A2, CYP2D6, CYP2E1, and CYP3A4 and, to a lesser extent, CYP2C8, CYP2C9, and CYP2FC19
- induction of major CYP enzymes [2]: does not significantly induce
- lipophilicity (log P): 2.42
- solubility (in 96% ethanol): soluble
- solubility (in chloroform): freely soluble
- solubility (in ether): practically insoluble
- solubility (in methanol): soluble
- solubility (in water): practically insoluble
- inhibition of major CYP enzymes [3]: does not significantly inhibit
